# Results published in US11654198B2, “Application of combination of polyethylene glycol and local anesthetic in non-narcotic analgesia” (JENKEM TECHNOLOGY CO., LTD. (TIANJIN), priority 2016, dated 2023).
# Legend:
# SD rats [1] = experiment: Hot plate paw withdrawal time, rat plantar incision model (Example 31); format: in vivo; settings: for time the analgesic effect can reach: conjugate 10/11/12 at 32/24/48 mg/kg
# Procedure: (§1) After SD rats inhale anesthesia (isoflurane), an incision of about 1 cm in length from the proximal end of the pelma to the toe is made: after the skin and fascia are cut, the plantar muscle is picked up with an ophthalmic forceps and cut longitudinally (maintaining the starting and ending point and attachment of muscles); pressing is carried out for hemostasis, physiological saline and test drugs are injected into the muscles of animal's legs, and then the pain threshold detection is performed by the hot plate method. Within 24 hours after the model is successful, the rats develop significant hyperalgesia. Qualified rats are randomly divided into 5 groups, 6 rats in each group, which are labeled as groups G1, G2, G3, G4 and G5, respectively. The plantar subcutaneous injection method for administration is used, and the grouping information of the experimental animals is shown in Table 8.
# (§2) Sensory block (hot plate paw withdrawal time): The sensory block of the rat is examined by a hot plate method, and the hot plate is heated to (56±1)° C., and one of the hind paws of the rat is placed on the hot plate, the other hind paw is in the laboratory room temperature condition, and the tested paw withdrawal time is observed and recorded. The average value of two to three times measured is recorded as a pain threshold. In order to avoid the damage of the experimental animal body, if the rat has no paw withdrawal in the hot plate experiment for more than 15 s, the paws should be removed from the hot plate, and the experimental result is recorded as 15 s. The time point for determining the paw withdrawal time of the hot plate is before administration, and 0.5 h, 1 h, 2 h, 4 h, 6 h, 8 h, 12 h, and 24 h after administration.
# SD rats [2] = experiment: Motor block four-level score, rat plantar incision model (Example 31); format: in vivo; parameters: key to motor function score: 1 = normal paw movement to 4 = complete loss of movement with gait defect; settings: for motor function score: bupivacaine 8, conjugate 10/11/12 32/24/48 mg/kg; for effect on motor function of SD rats: conjugate 10/11/12 at 32/24/48 mg/kg
# Procedure: as §1
# (§3) Motor block (four-level score): The exercise condition of each group of rats is evaluated by the motor block four-level scoring method. The scoring criteria are: paws can be dorsiflexed, stretched, valgus and other normal exercises, scored by 1 point; paws can be dorsiflexed, bendable or after the adduction, although the paws can be stretched, the stretching ability is weakened, scored by 2 points; the paws can perform dorsiflexion, but no longer has the ability to stretch, scored by 3 points; the paws completely lose the ability of dorsiflexion, curling and stretching, and the rats produce a gait defect, scored by 4 points. The time point for measuring the motor block score is before administration, and 0.5 h, 1 h, 2 h, 4 h, 6 h, 8 h, 12 h, and 24 h after administration.
# SD rats [3] = experiment: Sensory block, hot plate paw withdrawal time, non-anesthetic analgesic effect of PEG-bupivacaine conjugate (Example 30); format: in vivo, rat; settings: for hot plate paw withdrawal time: conjugate 10/11/12 at 32/24/48 mg/kg (as bupivacaine); for time the analgesic effect could reach: conjugate 10 at 32 mg/kg, conjugate 11 at 24 mg/kg
# Procedure: (§4) Male Sprague-Dawley rats are used in the study, about 230-250 g when accepted, and acclimated for at least 7 days prior to the experiment. Two rats are raised in each cage and fed freely with feed and water. The environmental conditions of the breeding room are 23±2° C., and the relative humidity is 40% to 70%, alternating 12 hours of light and dark. […] The qualified rats are randomly divided into 4 groups, 4 rats in each group, which are labeled as groups G1, G2, G3, and G4, respectively. Administration by direct injection in the sciatic nerve is adopted, and with the rat's back facing up, the drug is injected around the right sciatic nerve trunk between the right hip and the right thigh.
# as §2, with “the hot plate. The other hind” for “the hot plate, the other hind”, “s, the rat should be” for “s, the paws should be”, “8 h, 10 h, 12 h,” for “8 h, 12 h,”
# SD rats [4] = experiment: Motor block four-level score (Example 30); format: in vivo, rat; parameters: key to motor function score: 1 = normal motor function to 4 = complete loss with gait defect; settings: for motor function score: direct injection around sciatic nerve, conjugate 10/11/12 at 32/24/48 mg/kg (as bupivacaine); for effect on motor function of SD rats: conjugate 10 at 32 mg/kg, conjugate 11 at 24 mg/kg; for motor scores at different time points versus vehicle group: direct injection, conjugate 10/11/12 at 32/24/48 mg/kg
# Procedure: as §4
# as §3, with “can be stretched after the adduction, the stretching” for “can be stretched, the stretching”, “points; the paw can perform” for “points; the paws can perform”
# [5] = 0 h (after surgery, before administration), bupivacaine 8, conjugate 10/11/12 32/24/48 mg/kg
# [6] = 0.5 h after plantar subcutaneous injection, bupivacaine 8, conjugate 10/11/12 32/24/48 mg/kg
# [7] = 1 h after plantar subcutaneous injection, bupivacaine 8, conjugate 10/11/12 32/24/48 mg/kg
# [8] = 2 h after plantar subcutaneous injection, bupivacaine 8, conjugate 10/11/12 32/24/48 mg/kg
# [9] = 4 h after plantar subcutaneous injection, bupivacaine 8, conjugate 10/11/12 32/24/48 mg/kg
# [10] = 6 h after plantar subcutaneous injection, bupivacaine 8, conjugate 10/11/12 32/24/48 mg/kg
# [11] = 8 h after plantar subcutaneous injection, bupivacaine 8, conjugate 10/11/12 32/24/48 mg/kg
# [12] = 12 h after plantar subcutaneous injection, bupivacaine 8, conjugate 10/11/12 32/24/48 mg/kg
# [13] = 24 h after plantar subcutaneous injection, bupivacaine 8, conjugate 10/11/12 32/24/48 mg/kg
# [14] = base value before surgery, bupivacaine 8, conjugate 10/11/12 32/24/48 mg/kg (as bupivacaine)
# [15] = 0.5 h after direct injection around sciatic nerve
# [16] = 2 h after direct injection around sciatic nerve
# [17] = 4 h after direct injection around sciatic nerve
# [18] = 6 h after direct injection around sciatic nerve
# [19] = 8 h after direct injection around sciatic nerve
# [20] = 10 h after direct injection around sciatic nerve
# [21] = 12 h after direct injection around sciatic nerve
# [22] = 24 h after direct injection around sciatic nerve
# [23] = l h after direct injection around sciatic nerve
substance,measurement,setting,value
"8-Arm-PEG-Bupivacaine, 20K [bupivacaine conjugate 11]",hot plate paw withdrawal time,SD rats [1]; [5],1.26 s
same,hot plate paw withdrawal time,SD rats [1]; [6],7.43 s
same,hot plate paw withdrawal time,SD rats [1]; [7],8.49 s
same,hot plate paw withdrawal time,SD rats [1]; [8],9.10 s
same,hot plate paw withdrawal time,SD rats [1]; [9],7.91 s
same,hot plate paw withdrawal time,SD rats [1]; [10],8.65 s
same,hot plate paw withdrawal time,SD rats [1]; [11],2.19 s
same,hot plate paw withdrawal time,SD rats [1]; [12],1.89 s
same,hot plate paw withdrawal time,SD rats [1]; [13],1.56 s
same,hot plate paw withdrawal time,SD rats [1]; [14],4.97 s
same,time after administration at which hot plate paw withdrawal time is significantly higher than vehicle group,"SD rats [1]; bupivacaine 8, conjugate 10/11/12 32/24/48 mg/kg",≤ 6 h
same,time the analgesic effect can reach,SD rats [1],≥ 6 h
same,motor function score,SD rats [2]; 0 h (before administration),1 ± 0
same,motor function score,SD rats [2]; 0.5 h,1 ± 0
same,motor function score,SD rats [2]; 1 h,1 ± 0
same,motor function score,SD rats [2]; 2 h,1 ± 0
same,motor function score,SD rats [2]; 4 h,1 ± 0
same,motor function score,SD rats [2]; 6 h,1 ± 0
same,motor function score,SD rats [2]; 8 h,1 ± 0
same,motor function score,SD rats [2]; 12 h,1 ± 0
same,motor function score,SD rats [2]; 24 h,1 ± 0
same,effect on motor function of SD rats,SD rats [2],does not affect the motor function
same,hot plate paw withdrawal time,SD rats [3]; [15],9.60 s
same,hot plate paw withdrawal time,SD rats [3]; [16],5.02 s
same,hot plate paw withdrawal time,SD rats [3]; [17],6.65 s
same,hot plate paw withdrawal time,SD rats [3]; [18],6.44 s
same,hot plate paw withdrawal time,SD rats [3]; [19],3.69 s
same,hot plate paw withdrawal time,SD rats [3]; [20],3.24 s
same,hot plate paw withdrawal time,SD rats [3]; [21],2.62 s
same,hot plate paw withdrawal time,SD rats [3]; [22],3.77 s
same,time after administration at which hot plate paw withdrawal time is significantly higher than vehicle group,"SD rats [3]; conjugate 10/11/12 at 32/24/48 mg/kg, direct injection",≤ 6 h
same,time the analgesic effect could reach,SD rats [3],6 h
same,hot plate paw withdrawal time,SD rats [3]; [23],9.99 s
same,motor function score,SD rats [4]; 0 h (before administration),1 ± 0
same,motor function score,SD rats [4]; 0.5 h,1 ± 0
same,motor function score,SD rats [4]; 1 h,1 ± 0
same,motor function score,SD rats [4]; 2 h,1 ± 0
same,motor function score,SD rats [4]; 4 h,1 ± 0
same,motor function score,SD rats [4]; 6 h,1 ± 0
same,motor function score,SD rats [4]; 8 h,1 ± 0
same,motor function score,SD rats [4]; 12 h,1 ± 0
same,motor function score,SD rats [4]; 24 h,1 ± 0
same,effect on motor function of SD rats,SD rats [4],does not affect the motor function
same,motor scores at different time points versus vehicle group,SD rats [4],not significantly different
"8-Arm-PEG-Bupivacaine, 20K [bupivacaine conjugate 10]",hot plate paw withdrawal time,SD rats [1]; [5],1.41 s
same,hot plate paw withdrawal time,SD rats [1]; [6],6.52 s
same,hot plate paw withdrawal time,SD rats [1]; [7],7.91 s
same,hot plate paw withdrawal time,SD rats [1]; [8],6.21 s
same,hot plate paw withdrawal time,SD rats [1]; [9],6.79 s
same,hot plate paw withdrawal time,SD rats [1]; [10],7.42 s
same,hot plate paw withdrawal time,SD rats [1]; [11],7.43 s
same,hot plate paw withdrawal time,SD rats [1]; [12],2.10 s
same,hot plate paw withdrawal time,SD rats [1]; [13],1.32 s
same,hot plate paw withdrawal time,SD rats [1]; [14],5.20 s
same,time the analgesic effect can reach,SD rats [1],8 h
same,motor function score,SD rats [2]; 0 h (before administration),1 ± 0
same,motor function score,SD rats [2]; 0.5 h,1 ± 0
same,motor function score,SD rats [2]; 1 h,1.75 ± 0.5
same,motor function score,SD rats [2]; 2 h,1.75 ± 0.5
same,motor function score,SD rats [2]; 4 h,1.75 ± 0.5
same,motor function score,SD rats [2]; 6 h,1.75 ± 0.5
same,motor function score,SD rats [2]; 8 h,1.75 ± 0.5
same,motor function score,SD rats [2]; 12 h,1 ± 0
same,motor function score,SD rats [2]; 24 h,1 ± 0
same,effect on motor function of SD rats,SD rats [2],does not affect the motor function
same,hot plate paw withdrawal time,SD rats [3]; [15],11.85 s
same,hot plate paw withdrawal time,SD rats [3]; [16],8.91 s
same,hot plate paw withdrawal time,SD rats [3]; [17],10.74 s
same,hot plate paw withdrawal time,SD rats [3]; [18],11.92 s
same,hot plate paw withdrawal time,SD rats [3]; [19],8.49 s
same,hot plate paw withdrawal time,SD rats [3]; [20],6.64 s
same,hot plate paw withdrawal time,SD rats [3]; [21],3.82 s
same,hot plate paw withdrawal time,SD rats [3]; [22],3.81 s
same,time the analgesic effect could reach,SD rats [3],8 h
same,hot plate paw withdrawal time,SD rats [3]; [23],11.98 s
same,motor function score,SD rats [4]; 0 h (before administration),1 ± 0
same,motor function score,SD rats [4]; 0.5 h,1 ± 0
same,motor function score,SD rats [4]; 1 h,1.75 ± 0.5
same,motor function score,SD rats [4]; 2 h,1.75 ± 0.5
same,motor function score,SD rats [4]; 4 h,1.75 ± 0.5
same,motor function score,SD rats [4]; 6 h,1.75 ± 0.5
same,motor function score,SD rats [4]; 8 h,1.75 ± 0.5
same,motor function score,SD rats [4]; 12 h,1 ± 0
same,motor function score,SD rats [4]; 24 h,1 ± 0
same,effect on motor function of SD rats,SD rats [4],does not affect the motor function
same,motor scores at different time points versus vehicle group,SD rats [4],not significantly different
